Assay results reported in ChEMBL document CHEMBL5726505, “Heteroaryl compounds as IRAK inhibitors and uses thereof” (2017).

molecular target: T1, Interleukin-1 receptor-associated kinase 4 (Homo sapiens, UniProt Q9NWZ3); test: Enzymatic Assay: IRAK4 is a human purified recombinant enzyme (His-TEV-[…] ([…]). IRAK4 hydrolyses ATP, autophosphorylates and phosphorylates a Serine/Threonine generic peptidic substrate (STK: 61ST1BLC from CisBio International based in Bagnols/Cèze FR).Measurement of IRAK-4 inhibition was performed in streptavidin coated 384well FlashPlate (PerkinElmer #SMP410A). His-TEV-IRAK4 (20 ng/well), ATP (2 μM, [33P]ATP 0.25 µCi/well), STK1-biotin peptide (300 nM) and compounds in DMSO (range of concentrations from 20 µM to 1 nM) or controls (2% DMSO) were incubated for 3 hours at 30° C. in assay buffer: Hepes pH7.0 50 mM, Fatty acid-free BSA 0.1%, Dithiothreitol DTT 2 mM, MgCl2 10 mM, EGTA 0.5 mM, Tween-20 0.01%, MnCl2 5 mM.
T1 sequence (Q9NWZ3 whole entry): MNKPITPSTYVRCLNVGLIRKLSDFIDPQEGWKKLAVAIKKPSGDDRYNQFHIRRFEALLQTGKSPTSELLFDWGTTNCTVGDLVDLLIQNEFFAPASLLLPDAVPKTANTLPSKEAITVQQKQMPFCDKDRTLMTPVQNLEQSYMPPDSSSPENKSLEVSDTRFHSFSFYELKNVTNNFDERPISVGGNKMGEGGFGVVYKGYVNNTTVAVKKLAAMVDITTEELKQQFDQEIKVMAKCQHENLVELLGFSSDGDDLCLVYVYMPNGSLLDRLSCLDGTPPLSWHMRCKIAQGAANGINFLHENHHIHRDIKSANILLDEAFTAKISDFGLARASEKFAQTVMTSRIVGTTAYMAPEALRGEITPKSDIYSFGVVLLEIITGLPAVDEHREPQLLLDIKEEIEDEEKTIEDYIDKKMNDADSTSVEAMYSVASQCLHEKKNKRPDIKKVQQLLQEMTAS

| Compound | IC50 [nM] |
| --- | --- |
| Cn1cc(-c2cccc(-c3ncc(-c4cnn(C)c4)c(N[C@H]4CCN(S(C)(=O)=O)C4)n3)c2)cn1 | < 100 |
| Cn1cc(-c2cccc(-c3ncc(-c4ccn(C)n4)c(O[C@@H]4CCC[C@@H](N)[C@@H]4O)n3)c2)cn1 | < 100 |
| Cc1nnc(-c2cnc(-c3cccc(-c4cnn(C)c4)c3)nc2NC2CCN(S(C)(=O)=O)CC2)s1 | < 100 |
| Cn1cc(-c2cccc(-c3ncc(-c4cnn(C)c4)c(NCC4CCCN(C(=O)OC(C)(C)C)C4)n3)c2)cn1 (centres undefined) | > 5000 |
